The values that follow come from PubChem BioAssay (NCI).

Structures are written as SMILES. Where “and” joins values, the source holds several entries; their conditions need not be identical. Equal entries are not always repeated.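 Results reflect a 48-hour exposure of cells in 96-well plates to compound at five concentrations. GI50 = concentration required for 50% inhibition of growth. TGI: concentration producing complete growth inhibition.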

Among the test systems are 786-0 renal; HL-60(TB) leukemia; U251 CNS; NCI/ADR-RES ovarian; HCT-116 colon; MALME-3M melanoma; HCT-15 colon; TK-10 renal; CCRF-CEM leukemia; K-562 leukemia.
What all share (assay): growth of human tumour cells (NCI), 48 h

With `Cc1nc2sccn2c1/C=C1/C(=O)Nc2ccccc21`, the GI50 with 786-0 renal is 15.1 µM; in the test on HL-60(TB) leukemia it was 2.1 µM; with U251 CNS, 4.96 µM; with NCI/ADR-RES ovarian, 3.51 µM; with HCT-116 colon, 3.4 µM; in the test with MALME-3M melanoma it was 5.37 µM. Moreover, the GI50 in the test on HCT-15 colon is 2.46 µM; in the test with TK-10 renal it was 6.55 µM; with CCRF-CEM leukemia it was 5.01 µM; in the test with K-562 leukemia it was greater than 100 µM. Moreover, the TGI with 786-0 renal is greater than 100 µM; in the test with HL-60(TB) leukemia it was 7.25 µM; in the test with U251 CNS, greater than 74.3 µM; in the test with NCI/ADR-RES ovarian, greater than 51 µM; with HCT-116 colon, 20.2 µM; in the test with MALME-3M melanoma, greater than 100 µM. The TGI in the test on HCT-15 colon is greater than 100 µM; in the test with TK-10 renal it was greater than 78.1 µM; in the test with CCRF-CEM leukemia, greater than 100 µM; in the test with K-562 leukemia it was greater than 100 µM.
As for `COc1ccc(-c2[nH]ncc2-c2cc3c(c(OC)c2)OCC(=O)N3)cc1`, the GI50 in the test on 786-0 renal was 1.21 µM; in the test on HL-60(TB) leukemia, 0.352 µM; in the test with U251 CNS it was 0.481 µM; in the test on NCI/ADR-RES ovarian, 1.43 µM; with HCT-116 colon, 0.403 µM; with MALME-3M melanoma it was 2.75 µM. Besides, the GI50 in the test on HCT-15 colon is 0.457 µM; in the test on TK-10 renal, 7.59 µM; in the test with CCRF-CEM leukemia it was 0.398 µM; with K-562 leukemia, 0.309 µM. Further, the TGI in the test with 786-0 renal was greater than 100 µM; in the test on HL-60(TB) leukemia, 2.06 µM; in the test with U251 CNS, greater than 100 µM; in the test on NCI/ADR-RES ovarian, 29.2 µM; in the test with HCT-116 colon it was greater than 100 µM; in the test on MALME-3M melanoma, 99.1 µM. The TGI with HCT-15 colon, in the test on TK-10 renal, in the test on CCRF-CEM leukemia and with K-562 leukemia was greater than 100 µM each time.
`CNC(=O)c1cc(COc2nnc(Nc3ccc(Cl)cc3)c3ccoc23)ccn1`: the GI50 in the test with 786-0 renal is 2.36 µM and > 10 µM; with HL-60(TB) leukemia it was greater than 100 µM; with U251 CNS it was 5.34 µM and 4.26 µM; with NCI/ADR-RES ovarian, 4.48 µM and > 10 µM; in the test with HCT-116 colon it was 3.32 µM and > 10 µM; in the test on MALME-3M melanoma, 4.11 µM and > 10 µM. Further, the GI50 is 12.6 µM and > 10 µM in the test on HCT-15 colon; 3.59 µM and 8.84 µM in the test on TK-10 renal; 26.9 µM and > 10 µM with CCRF-CEM leukemia; 19.6 µM and > 10 µM in the test with K-562 leukemia. The TGI was 6.7 µM and > 10 µM in the test on 786-0 renal; greater than 100 µM with HL-60(TB) leukemia; 16.8 µM and > 10 µM with U251 CNS; greater than 42.5 µM with NCI/ADR-RES ovarian; 11.3 µM and > 10 µM in the test on HCT-116 colon; 17.2 µM and > 10 µM in the test on MALME-3M melanoma. The TGI with HCT-15 colon is 52.4 µM and > 10 µM; with TK-10 renal it was 11.8 µM and > 10 µM; with CCRF-CEM leukemia it was greater than 79.5 µM; in the test with K-562 leukemia, 72 µM and > 10 µM.
Regarding `CC/C(Cc1ccccc1)=C(\c1ccc(OCCN2CCCCCC2)cc1)c1ccc(OC(=O)NCc2ccccc2)cc1`, the GI50 with 786-0 renal was 1.38 µM; in the test with HL-60(TB) leukemia it was 1.18 µM; in the test on U251 CNS, 1.77 µM; with NCI/ADR-RES ovarian, 3.9 µM; with HCT-116 colon, 0.895 µM; in the test with MALME-3M melanoma, 0.951 µM. The GI50 in the test with HCT-15 colon was 1.07 µM; in the test on TK-10 renal, 8.2 µM; in the test with CCRF-CEM leukemia, 1.56 µM; in the test on K-562 leukemia it was 0.898 µM. Besides, the TGI in the test with 786-0 renal stood at 4.43 µM; with HL-60(TB) leukemia, 3.44 µM; in the test on U251 CNS, 5.48 µM; in the test with NCI/ADR-RES ovarian, 12.3 µM; in the test on HCT-116 colon it was 1.63 µM; in the test on MALME-3M melanoma it was 1.94 µM. Also, the TGI was determined as 2.94 µM in the test with HCT-15 colon, 16 µM in the test with TK-10 renal, 5.72 µM in the test on CCRF-CEM leukemia and 2.33 µM with K-562 leukemia.
Consider `C=CC(=O)Nc1ccc(Nc2nccc(-c3ccc(N4CCCC4)c(C#N)c3)n2)cc1`, for which the GI50 was 0.663 µM with 786-0 renal; 4.88 µM with HL-60(TB) leukemia; 15.4 µM with U251 CNS; greater than 25 µM with NCI/ADR-RES ovarian; 6.03 µM with HCT-116 colon; 5.06 µM in the test with MALME-3M melanoma. For the same compound, the GI50 in the test with HCT-15 colon is 1.17 µM; with TK-10 renal, 10.5 µM; in the test with CCRF-CEM leukemia it was 13.8 µM; in the test on K-562 leukemia, 5.94 µM. The TGI was 3.87 µM in the test on 786-0 renal; greater than 25 µM in the test on HL-60(TB) leukemia; greater than 25 µM in the test with U251 CNS; greater than 25 µM in the test on NCI/ADR-RES ovarian; greater than 25 µM with HCT-116 colon; 20 µM with MALME-3M melanoma. Besides, the TGI in the test with HCT-15 colon was 10.3 µM; in the test with TK-10 renal it was greater than 25 µM; with CCRF-CEM leukemia, greater than 25 µM; in the test on K-562 leukemia, greater than 25 µM.
With `CC(=O)N1CCN(C2=Nc3ccccc3CO2)C1=S`, the GI50 in the test on 786-0 renal is greater than 100 µM; in the test with HL-60(TB) leukemia it was 59.7 µM; with U251 CNS, greater than 100 µM; in the test with NCI/ADR-RES ovarian, greater than 100 µM; with HCT-116 colon, 89.8 µM; with MALME-3M melanoma it was 26 µM. Moreover, the GI50 was 57.8 µM in the test with HCT-15 colon, greater than 100 µM in the test with TK-10 renal, 32.9 µM in the test on CCRF-CEM leukemia and 46.5 µM in the test with K-562 leukemia. Also, the TGI was greater than 100 µM with 786-0 renal; greater than 100 µM with HL-60(TB) leukemia; greater than 100 µM in the test on U251 CNS; greater than 100 µM with NCI/ADR-RES ovarian; greater than 100 µM with HCT-116 colon; 89 µM in the test on MALME-3M melanoma. The TGI in the test with HCT-15 colon, in the test with TK-10 renal, with CCRF-CEM leukemia and in the test with K-562 leukemia was greater than 100 µM in each case.
On to `Cc1c2cnccc2c(C)c2c1c1cc(C3OCCCO3)ccc1n2C`, for which the GI50 is 0.457 µM in the test on 786-0 renal; 0.375 µM in the test on HL-60(TB) leukemia; 0.308 µM in the test with U251 CNS; 0.157 µM in the test on NCI/ADR-RES ovarian; 0.0472 µM in the test with HCT-116 colon; 0.29 µM in the test with MALME-3M melanoma. Also, the GI50 with HCT-15 colon was 0.281 µM; with TK-10 renal, 0.541 µM; in the test on CCRF-CEM leukemia, 0.291 µM; in the test with K-562 leukemia it was 0.418 µM. For the same compound, the TGI in the test on 786-0 renal worked out at 3.25 µM; in the test on HL-60(TB) leukemia, 1.77 µM; with U251 CNS, 1.33 µM; with NCI/ADR-RES ovarian, 1.83 µM; in the test with HCT-116 colon, 1.05 µM; with MALME-3M melanoma, 1.12 µM. For the same compound, the TGI was determined as 1.4 µM in the test on HCT-15 colon, 4.14 µM with TK-10 renal, 3.81 µM with CCRF-CEM leukemia and 2.69 µM in the test with K-562 leukemia.
